Assay results: patent publication US20220265635A1, “TREATMENT OF NEUROLOGICAL DISEASE” (Aclipse One Inc., priority 2018, published 2022)

Experiments:
[1] = test system: HSF1 regulated genes; test: Example 2 in vivo pharmacodynamic study via subcutaneous dosing, cortex: expression of genes upregulated by HSF1 activation; set-up: species or system mouse; details: for Dlg4 gene induction / Dnajba gene induction / Hspa1a gene induction / Hspa8 gene induction / Syn1 gene induction: wildtype mouse cortex, 5 mg/kg s.c. once daily 7 days, compared to Gapdh
Protocol: Wildtype mice (3 per group) were dosed subcutaneously at 0, 0.5, 1.5, 5 and 10 mg/kg (6aS)-6-methyl-5,6,6a,7-tetrahydro-4H-dibenzo[de,g]quinoline-10,11-diol hydrochloride for 7 days once daily. One animal in the 10 mg/kg dosing group was actually dosed 15 mg/kg on Day 1. To prepare the dosing solutions, (6aS)-6-methyl-5,6,6a,7-tetrahydro-4H-dibenzo[de,g]quinoline-10,11-diol was pre-weighed into bijous and stored in foil.

[2] = Example 4 mouse weights in TDP-43^Q331K mouse model; format: in vivo; details: TDP-43^Q331K mice
Protocol: (§1) Following genotyping, transgenic females were block randomized into three different dosing groups: vehicle once daily, 2.5 mg/kg (6aS)-6-methyl-5,6,6a,7-tetrahydro-4H-dibenzo[de,g]quinoline-10,11-diol twice daily and 5 mg/kg (6aS)-6-methyl-5,6,6a,7-tetrahydro-4H-dibenzo[de,g]quinoline-10,11-diol once daily. The doses were selected based on results of previous internal studies. Animals were weighed daily before dosing and dosed subcutaneously at 10 ml/kg with a solution of 0.5 mg/ml (6aS)-6-methyl-5,6,6a,7-tetrahydro-4H-dibenzo[de,g]quinoline-10,11-diol for the 5 mg/kg dose and 0.25 mg/ml for the 2.5 mg/kg dose. Where animals were dosed twice a day, the doses were at least 6 hours apart and the dosing solution was freshly made for the second dose of the day.
(§2) The study was designed with two main cohorts of mice. One cohort was dosed from 25 days of age until 6 months of age and mice had behavioral testing throughout the study and consisted of 14 mice per group. The other satellite cohort was dosed from 25 days of age until 3 months of age, with no behavioral testing and consisted of 6 mice per group for target engagement and histological assessment. Behavioral tests that were carried out during the experiment were: accelerated rotarod test, gait analysis, and electrophysiology.
Animals were weighed daily before dosing to calculate dose volume. […]

[3] = test system: TDP-43^Q331K mouse model; test: Example 4 accelerating rotarod test; format: in vivo; details: TDP-43^Q331K mice, 5 mg/kg once daily s.c., one time point (19 weeks of age)
Protocol: as §1
The study was designed with two main cohorts of mice. One cohort was dosed from 25 days of age until 6 months of age and mice had behavioral testing throughout the study and consisted of 14 mice per group. […]
Mice were tested on the accelerating rotarod (Jones & Roberts for mice, model 7650) once a week from 40 days of age until the end of the study. […] Mice are placed on the rotarod and the time taken to fall from the rotarod (latency to fall) is recorded. For each day of testing, each mouse was tested twice on the rotarod with a small rest in between trials and the best result from the two trials is recorded. […]

[4] = test system: TDP-43^Q331K mouse model; test: Example 4 electrophysiology: repetitive stimulation; format: in vivo; details: TDP-43^Q331K mice
Protocol: as §1, §2
Electrophysiological assessment of compound action muscle potential (CMAP) and repetitive stimulation was carried out at 6 weeks, 3 months and 6 months of age.
Mice were anesthetized using gaseous isoflurane and then maintained under gaseous anesthesia using a nose cone for the duration of the experiment. Body temperature was maintained with a heat pad. The fur from the lower left limb was removed using an electric razor followed by hair removal cream in order to allow skin contact of the ring electrodes. Ring electrodes were covered in electrical paste and were placed around the ankle and thigh area of the shaved limb. […]
Repetitive stimulation was carried out after the CMAP was calculated. […]

[5] = test system: Nrf2 and HSF1 target genes; test: Example 4 target engagement qPCR of cortex tissue; format: in vivo, mouse; details: normalized to Gapdh
Protocol: This in vivo pharmacology study was designed to test the efficacy of (6aS)-6-methyl-5,6,6a,7-tetrahydro-4H-dibenzo[de,g]quinoline-10,11-diol on the progression of motor and cognitive decline in the TDP-43^Q331K mouse model. In addition, tissue was collected at the end of the experiment for target engagement (gene expression) analysis of Nrf2 and HSF1 target genes.
as §1, §2
Tissue was collected at 24 hours after the final morning dose. All animals were overdosed with an intraperitoneal injection of pentibarital (JML, M042) at the time of tissue collection (2.5 ml/kg). In the 6 month cohort (n=14), 7 animals per group were perfused to fix tissue for histology. For these animals, once animals had lost pedal reflex, the chest cavity was opened and 10 ml of PBS was perfused via the heart, followed by 10 ml of 4% PFA. Brain and spinal cord were extracted and stored in 4% PFA overnight before being changed to PBS. The lumbar section of the spinal cord was dissected and embedded. For the remaining 7 animals per group, once the animals had lost pedal reflex, blood was extracted via a cardiac puncture technique. The blood was collected and stored in 1 ml of RNALater (ThermoFisher). Spinal cords were removed and the upper section of spinal cord was snap frozen in liquid nitrogen for protein analysis, while the lower section was stored in RNALater and stored at −20° C. Cortex was removed and dissected into four parts, the front left segment was stored in RNALater, while the three other sections were snap frozen in liquid nitrogen.
For the 3 month cohort, tissue was collected in a similar way to the snap frozen tissue for 6 month cohort, however where tissue was stored in RNALater for the 6 month cohort, it was processed for RNA extraction immediately in the 3 month cohort.
RNA was extracted from lower spinal cord and cortex using the RNeasy lipid tissue mini kit (Qiagen, 74804) following the manufactures protocol. Briefly tissue was homogenized in a small volume (150 μl) of QIAzol using a hand-held homogenizer in a fume hood. Once homogenized, the total volume of QIAzol was increased to 1 ml. Samples were incubated at room temperature for 5 minutes after which 200 μl of chloroform (Honeywell) was added and samples were shaken vigorously for 15 seconds. Mixed samples were then incubated at room temperature for 3 minutes then centrifuged at 12,000g for 15 minutes at 4° C. in a bench top microcentrifuge.
The upper aqueous phase of the sample was transferred to a fresh labelled tube and 1 volume of 70% ethanol was added. Samples were vortexed and 700 μl of sample was transferred to RNeasy mini spin columns attached to 2 ml collection tubes. […]

[6] = 3 months, 2.5 mg/kg dosing group

Structure (SMILES): CN1CCc2cccc3c2[C@@H]1Cc1ccc(O)c(O)c1-3 [(6aS)-6-methyl-5,6,6a,7-tetrahydro-4H-dibenzo[de,g]quinoline-10,11-diol]
- dose at which HSF1 regulated genes are activated ([1]; mice, s.c. once daily 7 days, Example 2): ≥ 0.5 mg/kg
- Dlg4 gene induction ([1]; 6 hours post final dose): 1.46 fold
- Dnajba gene induction ([1]; 6 hours post final dose): 1.31 fold
- Hspa1a gene induction ([1]; 6 hours post final dose): 1.84 fold
- Hspa8 gene induction ([1]; 6 hours post final dose): 1.56 fold
- Syn1 gene induction ([1]; 6 hours post final dose): 1.68 fold
- Dlg4 gene induction ([1]; 24 hours post final dose): 0.90 fold
- Dnajba gene induction ([1]; 24 hours post final dose): 1.17 fold
- Hspa1a gene induction ([1]; 24 hours post final dose): 2.25 fold
- Hspa8 gene induction ([1]; 24 hours post final dose): 2.62 fold
- Syn1 gene induction ([1]; 24 hours post final dose): 1.47 fold
- mouse weight compared to the vehicle dosing group ([2]; 3-month cohort, either dosing group (2.5 mg/kg twice daily, 5 mg/kg once daily s.c.)): no significant difference
- mouse weight compared to the vehicle dosing group ([2]; 6-month cohort, 2.5 mg/kg dosing group, from 121 days of age until the end of the study): significant decrease
- rotarod performance (latency to fall) compared to vehicle dosed animals [3]: significant increase
- repetitive stimulation, between the dose groups ([4]; 3 months): no significant difference
- repetitive stimulation response compared to the vehicle dosing group ([4]; 6 months of age, 2.5 mg/kg dose group, stimulation numbers 5 and 7): significant increase
- repetitive stimulation response (percentage of the first stimulation) compared to vehicle ([4]; 6 weeks of age, 2.5 mg/kg twice daily, final stimulation, significant difference): larger decrease in response
- GSR relative mRNA level compared to vehicle [5, 6]: upregulation
- Nqo1 relative mRNA level compared to vehicle [5, 6]: upregulation
- Osgin1 relative mRNA level compared to vehicle [5, 6]: upregulation
- GSR relative mRNA level compared to vehicle ([5]; 3 months, 5 mg/kg dosing group): significant upregulation
- Hspa1a relative mRNA level compared to vehicle ([5]; 3 months, 5 mg/kg dosing group): significant upregulation
- Nqo1 relative mRNA level compared to vehicle ([5]; 3 months, 5 mg/kg dosing group): significant upregulation
- Sqstm1 relative mRNA level compared to vehicle ([5]; 3 months, 5 mg/kg dosing group): significant upregulation
- Hspa1a relative mRNA level compared to vehicle ([5]; 6 months, 2.5 mg/kg twice daily): significant upregulation
- Hspa1a relative mRNA level compared to vehicle ([5]; 6 months, 5 mg/kg daily): significant upregulation
